# Reference: US20110257251A1, “TELOMERASE INHIBITORS AND METHODS OF USE THEREOF” (PRESIDENTS AND FELLOWS OF HARVARD COLLEGE, priority 2008, published 2011)
# Where two headings read alike, the source gives them in different places. Strand notation (5' to 3'): a small letter for the sugar, then the base; units joined by * are phosphorothioate-linked, units joined directly phosphodiester-linked; [ ] holds rarer units or linkages, { } end groups; capitals alone tell only the bases. m = 2'-O-methyl
# Experiments:
# [1] = test system: mutated full length hTR; experiment: Fluorescence polarization compensatory mutation study with mutated full-length hTR; assay type: binding, human; conditions: mutant RIPtide and mutant hTR
# From the text: Without wishing to be limited or constrained by theory, the RIPtide binding sites on hTR had been inferred assuming Watson-Crick complementarity between the RIPtide and target. To verify experimentally that the RIPtides were actually recognizing the predicted regions on hTR, tandem point mutations were introduced into the central portion of the RIPtides and compensatory sequence changes into hTR. The binding behavior of the “wild type” and “mutant” RIPtides to wild-type and compensatory mutant hTR targets was analyzed by FP (FIG. 7). Four different hTR transcripts were generated in which two consecutive nucleotides at the central position of each cluster, the expected target site (FIG. 6A, bases indicated in bold), were mutated to their Watson-Crick complementary bases (G→C, C→G and U→A). […] Similarly, binding was abolished or reduced when mutated RIPtides were incubated with wild-type hTR (FIG. 7C). […] Perhaps this lack of restoration in certain cases reflects a local change in the availability or in the folding energy of the single-stranded elements as a result of the mutation. Taken together, this mutational specificity supports the notion, without wishing to be bound by theory, that the RIPtides indeed target telomerase at the corresponding sequence-complementary sites.
# For mapping of hTR-RIPtide binding sites, site-directed mutagenesis on the pRc/CMV plasmid (Collins lab, UC Berkeley) was performed using a QuickChange-XL mutagenesis kit (Stratagene) and confirmed by sequencing. Full-length hTR transcripts incorporating two consecutive base mutations (to their Watson-Crick complementary bases) were generated for fluorescence polarization studies.
# [2] = test system: telomerase ribonucleoprotein complex; experiment: TRAP assay in cell extracts (HeLa, DU145, HEK293); assay type: biochemical, human; conditions: for IC50 in TRAP (in words): cell extracts (HeLa, DU145, HEK293)
# From the text: Having discovered a panel of RIPtides that bind four different regions on the naked RNA component of telomerase, it was next determined whether these molecules were capable of inhibiting the activity of the telomerase ribonucleoprotein complex in an in vitro setting. The Telomeric Repeat Amplification Protocol (TRAP) assay (Kim, N. W. et al., Science 266, 2011-2015 (1994)) was therefore employed. The TRAP assay is a PCR-based protocol that has found widespread use in determining telomerase activity in human cell extracts and also in evaluating the in vitro potency of telomerase inhibitors. Using a version of the TRAP assay (Cy5-TRAP) that utilizes fluorescence detection (Herbert, B.-S. et al., Nat. Protocols 1, 1583-1590 (2006)). IC50 values for several RIPtides were determined using cell extracts from two human tumor cell lines (HeLa and DU145) and an immortalized embryonic cell line (HEK293). Initially, a small library of RIPtides representing several clusters identified in the microarray screen was screened and validated by FP experiments on hTR, using telomerase activity present in HeLa cell extracts. The majority of these were 8-mers, but some 7-mers and 6-mers were also tested; all were fully complementary to the target hTR sequence with Kd's for hTR below 300 nM. Several phosphorothioate variations of the initial library were additionally tested, incorporating phosphorothioate linkages either at the two terminal positions of the RIPtide or at every position.
# Inhibition of telomerase activity in vitro was determined using TRAP, a PCR-based assay for telomerase activity in cell extracts (B.-S. Herbert, Nat. Protocols, 1, 1583-1590 (2006)). Unlabeled oligonucleotide sequences found to bind by FP were pre-incubated with cell extracts (HeLa, DU 145, and 293), and activity was measured by TRAP.
# RIPtides were synthesized, purified with PolyPak-II C18 reverse phase cartridges, and constitutionally verified by MALDI-TOF MS. Telomerase-positive cells were either purchased from ATCC (DU145 and HEK293) or provided in the Chemicon TRAP kit (HeLa). Cell extracts were prepared from cell pellets by detergent lysis with 1×CHAPS lysis buffer (Chemicon). RIPtides were incubated with cell extract for 1 h at 37° C. prior to the TRAP assays. Assays were performed following a protocol that uses fluorescence as a quantitation system, as previously described by Herbert et al. (Nat. Protocols 1, 1583-1590 (2006)). Briefly, extension of a fluorescent artificial substrate by telomerase was carried out for 30 minutes at 30° C., followed by amplification with 30 PCR cycles ([…] 30 s, 59° C. 30 s, 72° C. 1 min). Telomerase extension products were separated on 10% native PAGE gels, and bands were visualized by fluorescence imaging and quantified using ImageQuant™ (GE Healthcare). Concentrations of RIPtides ranged from 0.6 nM to 60 μM, and for the initial screening, experiments were performed in duplicate using HeLa cell extracts. For active RIPtides, experiments were repeated using DU145 (prostate cancer) and HEK293 cell extracts. Several controls were included in the design of the experiments: a positive control (untreated cell lysate), negative controls (buffer only, heat inactivated and RNase treated cell extracts), and PCR amplification control (60 μM of RIPtide added after telomerase elongation and before PCR step). For cell-based TRAP assays, DU145 cells were transfected with 0.2% Lipofectamine™ 2000 (Invitrogen) and 165 nM RIPtide for a period of 24 h. Cells were harvested, counted, lysed with 1×CHAPS lysis buffer and normalized by total protein concentration as determined by the Bradford assay. Assays were performed in triplicate as described above.
# The inhibitory potential of the RIPtides was initially assessed in HeLa cell extracts, in duplicate experiments, using a 600 pM-60 μM concentration range. Experiments with selected RIPtides were repeated for a concentration range of 0.6 pM-60 μM. […]
# [3] = test system: full-length hTR; experiment: Fluorescence polarization binding to full-length hTR; design: species or system human; conditions: for Kd: full-length hTR construct, SEQ ID NO: 1 variants, read-out: Kp from FP; for affinity for full-length hTR (in words): FP
# From the text: To assess and quantify the ability of the RIPtide hits from microarray screening to bind the target RNA in solution, a panel of RIPtides representing variations on the consensus sequences of top hits within each cluster was selected. These RIPtides were synthesized with a 3-carboxyfluorescein (FAM) label attached to the 3′-end, the same as had been attached to the surface of the microarray. Fluorescence polarization (FP) was then used to measure quantitatively the equilibrium dissociation constant (Kd) values of the FAM-labeled RIPtides, using the same folded target RNAs and buffer system as had been employed in the microarray screen.
# It is possible, without wishing to be limited by a theory, that RIPtide binding sites present or available in truncated forms of hTR may not be present or available in full-length hTR. Five RIPtides were therefore selected that had been validated for binding PKWT-1 in solution, and their binding affinity to full-length hTR was measured using FP. […] Were the J2b/3 loop involved in tertiary interactions in hTR, RIPtide binding might have been lost, and therefore it was surmised that the loop remains relatively unengaged in such interactions when present in naked hTR.
# The remainder of the RIPtide hits from primary microarray screens of PK123 and PK159 in solution were not validated, but instead validation using full-length hTR was analyzed. Representative examples from each of the clusters were selected (FIG. 4D) and the binding affinity of these RIPtides for full-length hTR was quantified (FIG. 6A). In this way, RIPtides from clusters III, IV and V that bind full-length hTR were identified. Taken together, the collection of hTR-validated RIPtides maps out a series of sites on the template/pseudoknot that are especially conducive to targeting by a 2′-O-methyl polyribonucleotide; with each site corresponding to a cluster of sequence-complementary RIPtides (FIG. 6B, shaded according to sequence in FIG. 6A). Specifically, these hyper-targetable regions are the J2b/3 loop and P3 stem (Cluster II), the J2a/2b bulge through part of the P2a stem (Cluster III), the J2a/3 loop (Cluster IV), and the Template region (Cluster V).
# FAM (6-carboxyfluorescein)-labeled oligonucleotides were synthesized on a 3′-(6-Fluorescein) CPG support (Glen Research) using a MerMade 12 (BioAutomation) DNA synthesizer, purified with Poly Pak-II (Glen Research) cartridges, and compositionally verified by MALDI-TOF MS. Unlabeled full length hTR was prepared by in vitro transcription in the presence of T7 RNA polymerase under the conditions described earlier for RIPtide screening, but without aminoallyl-UTP addition. After DNase I treatment and ethanol precipitation, hTR was purified using the RNeasy Midi kit (Qiagen). Unlabeled PKWT and PKWT-1 were purchased from Dharmacon, and were PAGE-purified and desalted. FAM-labeled RIPtides (5 nM) were titrated with increasing concentrations of folded RNA (300 pM-3 μM, typically). Solutions containing RIPtide and RNA were incubated at 37° C. for 2 h, after which fluorescence polarization was recorded at room temperature using a SpectraMax M5 (Molecular Devices) plate reader. Polarization (expressed in millipolarization units) was monitored at […] (cutoff 515 nm). […] Dissociation constants were determined using Kaleidagraph 3.5 (Synergy Software). […]
# [4] = test system: telomerase activity in DU145 cells; experiment: Cell-based TRAP assay in transfected DU145 cells; design: species or system human; conditions: 165 nM RIPtide, 24 h, Lipofectamine 2000, then TRAP
# Method: Having established that the modified RIPtides retain activity in vitro, several of these were tested in cell-based assays. DU145 prostate cancer cells were treated with 165 nM RIPtide for 24 h. The cells were subsequently lysed and telomerase activity was assessed by the TRAP assay (FIG. 8D). As a positive control, a previously reported 13-mer 2′-O-methyl oligonucleotide targeting the template region of hTR was employed (Pitts, A. E., Corey, D. R., Proc. Natl. Acad. Sci. USA 95, 11549-111554 (1998)). Lipofectamine™ was used to ensure optimal delivery, and it remains to be established whether cationic lipid delivery is necessary for 10-mers. In particular, there is evidence that relatively short oligonucleotides containing phosphorothioate linkages targeting telomerase show optimal cellular uptake properties (Chen, Z., et al., J. Med. Chem. 45, 5423-5425 (2002)).
# RIPtides were synthesized, purified with PolyPak-II C18 reverse phase cartridges, and constitutionally verified by MALDI-TOF MS. Telomerase-positive cells were either purchased from ATCC (DU145 and HEK293) or provided in the Chemicon TRAP kit (HeLa). Cell extracts were prepared from cell pellets by detergent lysis with 1×CHAPS lysis buffer (Chemicon). RIPtides were incubated with cell extract for 1 h at 37° C. prior to the TRAP assays. Assays were performed following a protocol that uses fluorescence as a quantitation system, as previously described by Herbert et al. (Nat. Protocols 1, 1583-1590 (2006)). Briefly, extension of a fluorescent artificial substrate by telomerase was carried out for 30 minutes at 30° C., followed by amplification with 30 PCR cycles ([…] 30 s, 59° C. 30 s, 72° C. 1 min). Telomerase extension products were separated on 10% native PAGE gels, and bands were visualized by fluorescence imaging and quantified using ImageQuant™ (GE Healthcare). […] Cells were harvested, counted, lysed with 1×CHAPS lysis buffer and normalized by total protein concentration as determined by the Bradford assay. […]
# [5] = cell extracts (HeLa, DU 145, and 293), SEQ ID NO: 1 variants, read-out: IC50 from TRAP
substance,measurement,setting,value
"AGUUAGG (all 2'-O-methyl, backbone not given here) [V-3]",restoration of binding with compensatory mutations in both RIPtide and hTR,[1],restoration was observed
G*C*C*U*C*C*A*G (mG*mC*mC*mU*mC*mC*mA*mG) [G*C*C*U*C*C*A*G LNA],IC50,[2]; [5],~6000 nM
G*CCUCCA*G (mG*mCmCmUmCmCmA*mG; further chemistry not given here),Kd,[3],37.3 ± 15.2 nM
GCCUCCA*G (mGmCmCmUmCmCmA*mG),IC50,[2]; [5],~16000 nM
same,Kd,[3],8.9 ± 5.6 nM
"GGUGGAAGGC (as printed in the source, key not given here) [IV-4]",IC50 in TRAP (in words),[2],low nanomolar range
"GUCAGCGA (all 2'-O-methyl, backbone not given here) [II-2]",affinity for full-length hTR (in words),[3],improvement in affinity
same,restoration of binding with compensatory mutations in both RIPtide and hTR,[1],restoration was observed
"GGUGGAAGGC (as printed in the source, key not given here)",IC50,"[2]; cell extracts, in vitro, read-out: IC50, telomerase inhibition in TRAP",~1 nM
5′-GCCUCCAG-3′ (chemistry not given here) [SEQ ID NO: 1],telomerase inhibition in TRAP assays (in words),[2]; cell extracts,showing inhibition of activity
same,IC50 in TRAP (in words),[2],micromolar range
same,affinity for full-length hTR (in words),[3],confirmed
"CAGCGAGA (all 2'-O-methyl, backbone not given here) [II-1]",restoration of binding with compensatory mutations in both RIPtide and hTR,[1],Restoration was not observed
"5′-GGUGGAAGGC-3′ (2'-O-methyl sugars, as printed in the source, key not given here) [IV-3]",IC50 in TRAP (in words),[2],low nanomolar range
same,telomerase inhibition in cultured cells,[4],no significant telomerase inhibition
G*CCUCCAG (mG*mCmCmUmCmCmAmG),IC50,[2]; [5],~9000 nM
same,Kd,[3],8.8 ± 2.5 nM
"GGUGGAAGGC (as printed in the source, key not given here) [IV-5]",telomerase inhibition in cultured cells,[4],marked inhibition
"GGUGCCAGGC (all 2'-O-methyl, backbone not given here; further chemistry not fully specified) [IV-3 mismatch, reference compound]",telomerase inhibition in cultured cells,[4],abolished inhibition
